Experimental data from PubChem BioAssay (NCI).
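GI50 is the concentration that inhibits growth by half. At the TGI there is no net growth.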

Columns and labels:
Assay in all cases: NCI-60 cell line screen, 384-well format; in the data active = GI50 below about 0.43 µM; inactive = the rest
SK-OV-3 ovarian = tested on: SK-OV-3 ovarian
U251 glioblastoma = tested on: U251 glioblastoma
UACC-62 melanoma = tested on: UACC-62 melanoma
TK-10 renal = tested on: TK-10 renal
SF-539 CNS = tested on: SF-539 CNS
OVCAR-3 ovarian = tested on: OVCAR-3 ovarian
DU-145 prostate = tested on: DU-145 prostate
MCF7 breast = tested on: MCF7 breast
OVCAR-5 ovarian = tested on: OVCAR-5 ovarian
MDA-MB-435 melanoma = tested on: MDA-MB-435 melanoma
A498 renal = tested on: A498 renal
NCI-H522 lung = tested on: NCI-H522 lung
EKVX NSCLC = tested on: EKVX NSCLC
PC-3 prostate = tested on: PC-3 prostate
HS 578T breast = tested on: HS 578T breast
IGROV1 ovarian = tested on: IGROV1 ovarian
HOP-62 NSCLC = tested on: HOP-62 NSCLC
CAKI-1 renal = tested on: CAKI-1 renal
RPMI-8226 leukemia = tested on: RPMI-8226 leukemia
UACC-257 melanoma = tested on: UACC-257 melanoma
SK-MEL-5 melanoma = tested on: SK-MEL-5 melanoma
HT29 colon = tested on: HT29 colon
HL-60(TB) leukemia = tested on: HL-60(TB) leukemia
SF-295 CNS = tested on: SF-295 CNS
BT-549 breast = tested on: BT-549 breast
NCI-H226 lung = tested on: NCI-H226 lung
HCT-15 colon = tested on: HCT-15 colon
SNB-75 CNS = tested on: SNB-75 CNS
A549 NSCLC = tested on: A549 NSCLC
NCI-H23 lung = tested on: NCI-H23 lung
T-47D breast = tested on: T-47D breast
KM12 colon = tested on: KM12 colon
COLO 205 colon = tested on: COLO 205 colon
HCC-2998 colon = tested on: HCC-2998 colon
MDA-MB-468 breast = tested on: MDA-MB-468 breast
ACHN renal = tested on: ACHN renal
NCI/ADR-RES ovarian = tested on: NCI/ADR-RES ovarian
MDA-MB-231 breast = tested on: MDA-MB-231 breast
HOP-92 NSCLC = tested on: HOP-92 NSCLC
OVCAR-8 ovarian = tested on: OVCAR-8 ovarian
SR leukemia = tested on: SR leukemia
NCI-H322M lung = tested on: NCI-H322M lung
SNB-19 CNS = tested on: SNB-19 CNS
LOX IMVI melanoma = tested on: LOX IMVI melanoma
OVCAR-4 ovarian = tested on: OVCAR-4 ovarian
RXF 393 renal = tested on: RXF 393 renal
SK-MEL-28 melanoma = tested on: SK-MEL-28 melanoma
SF-268 CNS = tested on: SF-268 CNS
MALME-3M melanoma = tested on: MALME-3M melanoma
SN12C renal = tested on: SN12C renal
MOLT-4 leukemia = tested on: MOLT-4 leukemia
HCT-116 colon = tested on: HCT-116 colon
M14 melanoma = tested on: M14 melanoma
NCI-H460 NSCLC = tested on: NCI-H460 NSCLC

COc1cc2c(cc1-c1c(C)noc1C)ncc1[nH]c(=O)n([C@H](C)c3ccccn3)c12
9.6 µM: TGI (OVCAR-8 ovarian)
7.74 µM: TGI (MOLT-4 leukemia)
6.27 µM: TGI (COLO 205 colon)
21.5 µM: TGI (HS 578T breast)
45.5 µM: TGI (SK-OV-3 ovarian)
9.78 µM: TGI (IGROV1 ovarian)
2 µM: TGI (HCC-2998 colon)
> 100 µM: TGI (U251 glioblastoma) | TGI (UACC-62 melanoma) | TGI (SF-539 CNS) | TGI (DU-145 prostate) | TGI (MCF7 breast) | TGI (A498 renal) | TGI (EKVX NSCLC) | TGI (PC-3 prostate) | TGI (CAKI-1 renal) | TGI (HT29 colon) | TGI (SF-295 CNS) | TGI (SNB-75 CNS) | TGI (A549 NSCLC) | TGI (NCI-H23 lung) | TGI (T-47D breast) | TGI (KM12 colon) | TGI (MDA-MB-468 breast) | TGI (ACHN renal) | TGI (MDA-MB-231 breast) | TGI (HOP-92 NSCLC) | TGI (RXF 393 renal) | TGI (SK-MEL-28 melanoma) | TGI (SF-268 CNS) | TGI (SN12C renal) | TGI (HCT-116 colon) | TGI (NCI-H460 NSCLC)
11.4 µM: TGI (BT-549 breast)
14.3 µM: TGI (SR leukemia)
51.2 µM: TGI (MDA-MB-435 melanoma)
inactive: GI50 (SK-OV-3 ovarian) 0.577 µM | GI50 (U251 glioblastoma) 3.17 µM | GI50 (TK-10 renal) 0.575 µM | GI50 (SF-539 CNS) 0.829 µM | GI50 (DU-145 prostate) 8.96 µM | GI50 (MDA-MB-435 melanoma) 2.45 µM | GI50 (A498 renal) 0.693 µM | GI50 (EKVX NSCLC) 27.7 µM | GI50 (PC-3 prostate) 0.743 µM | GI50 (IGROV1 ovarian) 0.584 µM | GI50 (CAKI-1 renal) 0.479 µM | GI50 (UACC-257 melanoma) 0.503 µM | GI50 (SK-MEL-5 melanoma) 0.438 µM | GI50 (SF-295 CNS) 5.3 µM | GI50 (BT-549 breast) 0.504 µM | GI50 (NCI-H226 lung) 1.31 µM | GI50 (HCT-15 colon) 0.488 µM | GI50 (SNB-75 CNS) 18.8 µM | GI50 (A549 NSCLC) 2.39 µM | GI50 (NCI-H23 lung) 1.25 µM | GI50 (T-47D breast) 3.1 µM | GI50 (KM12 colon) 1.71 µM | GI50 (COLO 205 colon) 0.498 µM | GI50 (MDA-MB-468 breast) 0.872 µM | GI50 (ACHN renal) 1.61 µM | GI50 (NCI/ADR-RES ovarian) 3.05 µM | GI50 (MDA-MB-231 breast) 0.91 µM | GI50 (HOP-92 NSCLC) 11.4 µM | GI50 (OVCAR-8 ovarian) 0.521 µM | GI50 (NCI-H322M lung) 0.509 µM | GI50 (SNB-19 CNS) 0.922 µM | GI50 (RXF 393 renal) 8.71 µM | GI50 (SK-MEL-28 melanoma) 2.64 µM | GI50 (SF-268 CNS) 8.13 µM | GI50 (MALME-3M melanoma) 1.91 µM | GI50 (MOLT-4 leukemia) 0.915 µM | GI50 (HCT-116 colon) 1.9 µM | GI50 (M14 melanoma) 1.03 µM | GI50 (NCI-H460 NSCLC) 2.92 µM
0.277 µM: TGI (HL-60(TB) leukemia)
active: GI50 (UACC-62 melanoma) 0.308 µM | GI50 (OVCAR-3 ovarian) 0.421 µM | GI50 (MCF7 breast) 0.269 µM | GI50 (OVCAR-5 ovarian) 0.392 µM | GI50 (NCI-H522 lung) 0.321 µM | GI50 (HS 578T breast) 0.342 µM | GI50 (HOP-62 NSCLC) 0.335 µM | GI50 (RPMI-8226 leukemia) 0.212 µM | GI50 (HT29 colon) 0.412 µM | GI50 (HL-60(TB) leukemia) 0.144 µM | GI50 (HCC-2998 colon) 0.303 µM | GI50 (SR leukemia) 0.297 µM | GI50 (LOX IMVI melanoma) 0.245 µM | GI50 (OVCAR-4 ovarian) 0.199 µM | GI50 (SN12C renal) 0.364 µM
2.54 µM: TGI (HOP-62 NSCLC)
7.13 µM: TGI (OVCAR-3 ovarian)
0.615 µM: TGI (OVCAR-4 ovarian)
24.7 µM: TGI (NCI-H226 lung)
12.4 µM: TGI (TK-10 renal)
63.5 µM: TGI (SNB-19 CNS)
0.819 µM: TGI (RPMI-8226 leukemia)
32.5 µM: TGI (MALME-3M melanoma)
16.8 µM: TGI (NCI/ADR-RES ovarian)
2.41 µM: TGI (NCI-H522 lung)
9.51 µM: TGI (NCI-H322M lung)
11.6 µM: TGI (UACC-257 melanoma)
10.9 µM: TGI (OVCAR-5 ovarian)
8.69 µM: TGI (SK-MEL-5 melanoma)
33.2 µM: TGI (M14 melanoma)
2.8 µM: TGI (HCT-15 colon)
0.574 µM: TGI (LOX IMVI melanoma)

COc1ccc(-c2cc3nccn3c(Nc3ncccc3C(N)=O)n2)cc1OC
> 100 µM: TGI (SK-OV-3 ovarian) | TGI (U251 glioblastoma) | TGI (UACC-62 melanoma) | TGI (TK-10 renal) | TGI (SF-539 CNS) | TGI (OVCAR-3 ovarian) | TGI (MCF7 breast) | TGI (OVCAR-5 ovarian) | TGI (MDA-MB-435 melanoma) | TGI (A498 renal) | TGI (NCI-H522 lung) | TGI (EKVX NSCLC) | TGI (PC-3 prostate) | TGI (HS 578T breast) | TGI (IGROV1 ovarian) | TGI (CAKI-1 renal) | TGI (RPMI-8226 leukemia) | TGI (UACC-257 melanoma) | TGI (SK-MEL-5 melanoma) | TGI (HT29 colon) | TGI (SF-295 CNS) | TGI (BT-549 breast) | TGI (NCI-H226 lung) | TGI (HCT-15 colon) | TGI (SNB-75 CNS) | TGI (A549 NSCLC) | TGI (NCI-H23 lung) | TGI (T-47D breast) | TGI (KM12 colon) | TGI (COLO 205 colon) | TGI (HCC-2998 colon) | TGI (NCI/ADR-RES ovarian) | TGI (MDA-MB-231 breast) | TGI (HOP-92 NSCLC) | TGI (OVCAR-8 ovarian) | TGI (NCI-H322M lung) | TGI (SNB-19 CNS) | TGI (OVCAR-4 ovarian) | TGI (SK-MEL-28 melanoma) | TGI (SF-268 CNS) | TGI (MALME-3M melanoma) | TGI (SN12C renal) | TGI (M14 melanoma)
91 µM: TGI (RXF 393 renal)
active: GI50 (CAKI-1 renal) 0.392 µM | GI50 (SR leukemia) 0.129 µM
5.77 µM: TGI (MOLT-4 leukemia)
4.31 µM: TGI (LOX IMVI melanoma)
12.4 µM: TGI (NCI-H460 NSCLC)
3.75 µM: TGI (ACHN renal)
3.05 µM: TGI (HL-60(TB) leukemia)
71.4 µM: TGI (HOP-62 NSCLC)
10.9 µM: TGI (HCT-116 colon)
0.301 µM: TGI (SR leukemia)
12.3 µM: TGI (DU-145 prostate)
inactive: GI50 (SK-OV-3 ovarian) 0.571 µM | GI50 (U251 glioblastoma) 7.43 µM | GI50 (UACC-62 melanoma) 0.675 µM | GI50 (TK-10 renal) 0.692 µM | GI50 (SF-539 CNS) 4.82 µM | GI50 (OVCAR-3 ovarian) 2.36 µM | GI50 (DU-145 prostate) 0.914 µM | GI50 (MCF7 breast) 1.11 µM | GI50 (OVCAR-5 ovarian) 4.46 µM | GI50 (MDA-MB-435 melanoma) > 100 µM | GI50 (A498 renal) 0.518 µM | GI50 (NCI-H522 lung) 0.587 µM | GI50 (EKVX NSCLC) 17.9 µM | GI50 (PC-3 prostate) 2.17 µM | GI50 (HS 578T breast) 1.31 µM | GI50 (IGROV1 ovarian) 0.666 µM | GI50 (HOP-62 NSCLC) 0.784 µM | GI50 (RPMI-8226 leukemia) 1.62 µM | GI50 (UACC-257 melanoma) 91.7 µM | GI50 (SK-MEL-5 melanoma) 0.567 µM | GI50 (HT29 colon) 6.96 µM | GI50 (HL-60(TB) leukemia) 1.15 µM | GI50 (SF-295 CNS) > 100 µM | GI50 (BT-549 breast) 2.26 µM | GI50 (NCI-H226 lung) 6.52 µM | GI50 (HCT-15 colon) 0.677 µM | GI50 (SNB-75 CNS) > 100 µM | GI50 (A549 NSCLC) 17.9 µM | GI50 (NCI-H23 lung) 0.858 µM | GI50 (T-47D breast) > 100 µM | GI50 (KM12 colon) 1.73 µM | GI50 (COLO 205 colon) 0.522 µM | GI50 (HCC-2998 colon) 46.6 µM | GI50 (ACHN renal) 0.45 µM | GI50 (NCI/ADR-RES ovarian) 1.87 µM | GI50 (MDA-MB-231 breast) > 100 µM | GI50 (HOP-92 NSCLC) > 100 µM | GI50 (OVCAR-8 ovarian) 2.14 µM | GI50 (NCI-H322M lung) 2.06 µM | GI50 (SNB-19 CNS) 51.6 µM | GI50 (LOX IMVI melanoma) 0.461 µM | GI50 (OVCAR-4 ovarian) > 100 µM | GI50 (RXF 393 renal) 2.36 µM | GI50 (SK-MEL-28 melanoma) > 100 µM | GI50 (SF-268 CNS) 2.02 µM | GI50 (MALME-3M melanoma) > 100 µM | GI50 (SN12C renal) 0.819 µM | GI50 (MOLT-4 leukemia) 1.48 µM | GI50 (HCT-116 colon) 0.454 µM | GI50 (M14 melanoma) > 100 µM | GI50 (NCI-H460 NSCLC) 0.555 µM
